What was measured:
BRG1 = molecular target: T1, BRG1 (Homo sapiens, UniProt P51532); experiment: Immunofluorescence assay for BRG1 degradation in SW1573 cells; assay type: cell-based; settings: 20 hours incubation; for DC50: immunofluorescence mean nuclear signal, read-out: BRG1 IF Degradation IC50; for Dmax: SW1573, 20 h, normalized to a known degrader control, read-out: BRG1 IF Degradation Sinf (%)
T1 construct: either BRM primary antibody (Cell signaling Cat #11966) or BRG primary antibody (Abcam, ab 110641); endogenous in cells; host or cells: SW1573
T1 sequence (P51532 whole entry): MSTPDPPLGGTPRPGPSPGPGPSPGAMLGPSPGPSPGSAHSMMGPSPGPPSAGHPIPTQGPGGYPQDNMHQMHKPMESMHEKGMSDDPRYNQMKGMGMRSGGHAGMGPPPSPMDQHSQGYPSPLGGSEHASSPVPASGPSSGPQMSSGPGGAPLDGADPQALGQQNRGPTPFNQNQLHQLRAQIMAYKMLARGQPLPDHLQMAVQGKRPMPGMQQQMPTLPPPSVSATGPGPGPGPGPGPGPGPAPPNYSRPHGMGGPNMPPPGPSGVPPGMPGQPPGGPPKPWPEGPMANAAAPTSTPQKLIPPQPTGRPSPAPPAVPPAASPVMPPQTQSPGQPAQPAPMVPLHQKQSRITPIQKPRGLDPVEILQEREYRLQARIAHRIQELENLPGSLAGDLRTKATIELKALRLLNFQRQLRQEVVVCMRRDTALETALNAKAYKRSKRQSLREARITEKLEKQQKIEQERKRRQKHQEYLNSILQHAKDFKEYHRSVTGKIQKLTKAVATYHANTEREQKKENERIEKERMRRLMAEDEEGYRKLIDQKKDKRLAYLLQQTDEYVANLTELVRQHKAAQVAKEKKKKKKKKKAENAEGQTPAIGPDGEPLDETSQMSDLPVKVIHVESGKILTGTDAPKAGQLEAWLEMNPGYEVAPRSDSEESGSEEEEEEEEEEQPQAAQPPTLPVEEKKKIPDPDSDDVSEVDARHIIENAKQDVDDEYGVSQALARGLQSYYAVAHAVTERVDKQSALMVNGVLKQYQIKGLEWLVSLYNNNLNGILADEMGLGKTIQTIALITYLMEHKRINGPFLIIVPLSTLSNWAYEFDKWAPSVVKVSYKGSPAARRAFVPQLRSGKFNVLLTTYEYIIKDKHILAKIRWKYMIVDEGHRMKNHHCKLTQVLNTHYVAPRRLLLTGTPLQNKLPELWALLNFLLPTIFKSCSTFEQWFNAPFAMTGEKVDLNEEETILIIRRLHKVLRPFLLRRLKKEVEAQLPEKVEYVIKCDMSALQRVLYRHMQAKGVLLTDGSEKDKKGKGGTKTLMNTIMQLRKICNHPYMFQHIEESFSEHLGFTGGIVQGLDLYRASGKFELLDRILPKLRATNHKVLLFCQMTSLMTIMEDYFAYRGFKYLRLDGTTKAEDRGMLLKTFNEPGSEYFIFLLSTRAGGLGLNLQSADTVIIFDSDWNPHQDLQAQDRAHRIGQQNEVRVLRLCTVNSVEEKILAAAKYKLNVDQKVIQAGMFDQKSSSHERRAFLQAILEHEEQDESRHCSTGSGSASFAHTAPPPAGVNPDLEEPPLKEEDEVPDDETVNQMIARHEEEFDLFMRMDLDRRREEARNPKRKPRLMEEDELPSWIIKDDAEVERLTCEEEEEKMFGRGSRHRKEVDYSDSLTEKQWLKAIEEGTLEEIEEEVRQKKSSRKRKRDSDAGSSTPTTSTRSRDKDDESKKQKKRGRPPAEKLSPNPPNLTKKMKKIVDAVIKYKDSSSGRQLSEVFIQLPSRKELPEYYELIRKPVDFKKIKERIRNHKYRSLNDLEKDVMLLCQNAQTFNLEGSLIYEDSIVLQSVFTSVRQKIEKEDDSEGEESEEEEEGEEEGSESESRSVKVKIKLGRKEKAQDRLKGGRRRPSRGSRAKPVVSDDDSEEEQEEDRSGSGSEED
Method in brief: (§1)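 Cells seeded one day before dosing, exposed to compounds for 20 hours, then fixed, permeabilized, blocked and stained overnight at 4 °C with anti-BRM or anti-BRG1 antibody. Nuclear fluorescence intensity per cell, normalized to a degrader control, gave concentration-response curves fitted with a floating maximum.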

BRM = BRM (Homo sapiens, UniProt P51531); experiment: Immunofluorescence assay for BRM degradation in SW1573 cells; assay type: cell-based; design: treated overnight at 4° C. with either BRM primary antibody (Cell signaling Cat #11966) or BRG primary antibody; endogenous in cells; host or cells: SW1573; settings: 20 hours incubation; for DC50: immunofluorescence mean nuclear signal, read-out: BRM IF Degradation IC50; for BRM IF Degradation Sinf (%): normalized to a known degrader control
Sequence of BRM (P51531 whole entry): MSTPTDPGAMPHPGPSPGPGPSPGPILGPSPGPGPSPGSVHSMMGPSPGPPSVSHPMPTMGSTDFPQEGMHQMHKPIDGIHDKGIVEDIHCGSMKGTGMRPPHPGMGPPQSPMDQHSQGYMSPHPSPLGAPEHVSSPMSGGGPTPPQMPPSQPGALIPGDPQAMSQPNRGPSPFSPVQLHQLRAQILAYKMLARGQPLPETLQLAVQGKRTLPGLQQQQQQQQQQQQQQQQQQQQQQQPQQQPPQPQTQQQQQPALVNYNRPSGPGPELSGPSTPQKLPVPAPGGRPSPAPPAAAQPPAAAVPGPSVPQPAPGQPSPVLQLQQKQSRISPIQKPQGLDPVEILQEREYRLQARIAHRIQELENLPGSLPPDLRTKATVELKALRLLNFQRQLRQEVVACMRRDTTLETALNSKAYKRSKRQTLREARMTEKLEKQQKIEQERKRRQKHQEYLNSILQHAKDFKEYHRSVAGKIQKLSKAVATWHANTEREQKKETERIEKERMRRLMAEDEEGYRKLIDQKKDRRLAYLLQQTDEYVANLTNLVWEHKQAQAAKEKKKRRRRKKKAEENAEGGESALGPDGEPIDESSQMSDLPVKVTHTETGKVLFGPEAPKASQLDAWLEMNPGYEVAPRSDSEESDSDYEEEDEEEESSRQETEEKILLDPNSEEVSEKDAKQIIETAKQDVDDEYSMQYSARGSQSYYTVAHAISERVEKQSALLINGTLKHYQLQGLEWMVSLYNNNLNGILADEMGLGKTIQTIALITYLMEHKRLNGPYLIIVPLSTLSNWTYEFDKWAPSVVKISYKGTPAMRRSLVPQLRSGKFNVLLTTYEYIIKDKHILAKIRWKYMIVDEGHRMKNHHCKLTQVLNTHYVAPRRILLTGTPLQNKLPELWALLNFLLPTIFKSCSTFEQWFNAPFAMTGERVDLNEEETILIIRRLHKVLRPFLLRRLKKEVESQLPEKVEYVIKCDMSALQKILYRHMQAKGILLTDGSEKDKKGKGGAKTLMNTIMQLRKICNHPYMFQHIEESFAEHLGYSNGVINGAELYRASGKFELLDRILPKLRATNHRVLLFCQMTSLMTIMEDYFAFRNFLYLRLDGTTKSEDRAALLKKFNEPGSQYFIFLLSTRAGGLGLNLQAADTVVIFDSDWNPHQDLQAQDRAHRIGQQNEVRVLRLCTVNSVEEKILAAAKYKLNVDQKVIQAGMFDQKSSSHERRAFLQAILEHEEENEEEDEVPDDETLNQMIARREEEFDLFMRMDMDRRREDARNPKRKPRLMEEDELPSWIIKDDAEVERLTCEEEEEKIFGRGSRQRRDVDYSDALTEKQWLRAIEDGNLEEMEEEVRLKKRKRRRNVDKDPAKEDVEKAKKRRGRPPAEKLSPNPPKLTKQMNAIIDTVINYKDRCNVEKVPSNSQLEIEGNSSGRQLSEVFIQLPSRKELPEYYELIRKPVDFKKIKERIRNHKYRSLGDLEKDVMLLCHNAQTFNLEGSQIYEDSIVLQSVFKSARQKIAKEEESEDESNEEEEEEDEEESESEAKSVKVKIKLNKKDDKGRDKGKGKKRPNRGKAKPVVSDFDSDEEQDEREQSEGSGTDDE
Method in brief: as §1

Row | Structure (SMILES) | DC50 (BRG1) | Dmax (BRG1) | DC50 (BRM) | BRM IF Degradation Sinf (%) (BRM)
1 | Nc1nnc(-c2ccccc2O)cc1N1CC2CCC(C1)N2c1ccnc(C#CCN2CCC[C@@H]2CO)c1 [Compound 65, 2-[6-amino-5-[8-[2-[3-[(2R)-2-(hydroxymethyl)pyrrolidin-1-yl]prop-1-ynyl]-4-pyridyl]-3,8-diazabicyclo[3.2.1]octan-3-yl]pyridazin-3-yl]phenol] | 10 to 100 nM | 0 to 30% | < 10 nM | E (E indicates −30%-−70%)
2 | COC(=O)C1CCS(=O)(=O)C12CN(CC#Cc1cc(N3C4CCC3CN(c3cc(-c5ccccc5O)nnc3N)C4)ccn1)C2 (stereo not drawn) [Compound 183, methyl 2-[3-[4-[3-[3-amino-6-(2-hydroxyphenyl)pyridazin-4-yl]-3,8-diazabicyclo[3.2.1]octan-8-yl]-2-pyridyl]prop-2-ynyl]-5,5-dioxo-51ambda6-thia-2-azaspiro[3.4]octane-8-carboxylate] | > 100 nM |  | > 100 nM | E (E indicates −30%-−70%)
3 | Nc1nnc(-c2ccccc2O)cc1N1CC2CCC(C1)N2c1ccnc(C#CCN2CC(N3CCOCC3)C2)c1 [Compound 229, 2-[6-amino-5-[8-[2-[3-(3-morpholinoazetidin-1-yl)prop-1-ynyl]-4-pyridyl]-3,8-diazabicyclo[3.2.1]octan-3-yl]pyridazin-3-yl]phenol] | 10 to 100 nM | 30 to 70% | 10 to 100 nM | F (F indicates −71%-−120%)
4 | Nc1nnc(-c2ccccc2O)cc1N1CC2CCC(C1)N2c1ccnc(C#CCN2C3CCC(C3)C2CO)c1 (stereo not drawn) [Compound 103, 2-[6-amino-5-[8-[2-[3-[3-(hydroxymethyl)-2-azabicyclo[2.2.1]heptan-2-yl]prop-1-ynyl]-4-pyridyl]-3,8-diazabicyclo[3.2.1]octan-3-yl]pyridazin-3-yl]phenol] | > 100 nM | 30 to 70% | < 10 nM | E (E indicates −30%-−70%)
5 | COC1CCCN(CC#Cc2cc(N3C4CCC3CN(c3cc(-c5ccccc5O)nnc3N)C4)ccn2)C1 (stereo not drawn) [Compound 37, 2-[6-amino-5-[8-[2-[3-(3-methoxy-1-piperidyl)prop-1-ynyl]-4-pyridyl]-3,8-diazabicyclo[3.2.1]octan-3-yl]pyridazin-3-yl]phenol] | < 10 nM | 30 to 70% | 10 to 100 nM | E (E indicates −30%-−70%)
6 | Nc1nnc(-c2ccccc2O)cc1N1CC2CCC(C1)N2c1ccnc(C#CCN2CCOCC23CC3)c1 [Compound 73, 2-[6-amino-5-[8-[2-[3-(7-oxa-4-azaspiro[2.5]octan-4-yl)prop-1-ynyl]-4-pyridyl]-3,8-diazabicyclo[3.2.1]octan-3-yl]pyridazin-3-yl]phenol] | > 100 nM |  | > 100 nM | E (E indicates −30%-−70%)
7 | Nc1nnc(-c2ccccc2O)cc1N1CC2CCC(C1)N2c1ccnc(C#CCN2CCCCC(F)(F)C2)c1 [Compound 181, 2-[6-amino-5-[8-[2-[3-(3,3-difluoroazepan-1-yl)prop-1-ynyl]-4-pyridyl]-3,8-diazabicyclo[3.2.1]octan-3-yl]pyridazin-3-yl]phenol] | 10 to 100 nM | 30 to 70% | 10 to 100 nM | F (F indicates −71%-−120%)
8 | Nc1nnc(-c2ccccc2O)cc1N1CC2CCC(C1)N2c1ccnc(C#CCN2CC3CC3C2)c1 (stereo not drawn) [Compound 68, 2-[6-amino-5-[8-[2-[3-(3-azabicyclo[3.1.0]hexan-3-yl)prop-1-ynyl]-4-pyridyl]-3,8-diazabicyclo[3.2.1]octan-3-yl]pyridazin-3-yl]phenol;] | < 10 nM | 30 to 70% | < 10 nM | F (F indicates −71%-−120%)
9 | Nc1nnc(-c2ccccc2O)cc1N1CC2CCC(C1)N2c1ccnc(C#CCN2CC(F)(CO)C2)c1 [Compound 171, 2-[6-amino-5-[8-[2-[3-[3-fluoro-3-(hydroxymethyl)azetidin-1-yl]prop-1-ynyl]-4-pyridyl]-3,8-diazabicyclo[3.2.1]octan-3-yl]pyridazin-3-yl]phenol] | > 100 nM |  | > 100 nM | E (E indicates −30%-−70%)
